Results as given in EP2998294A1, “Naphthyl sulfonamide phenyl derivatives as KEAP-1 modulators for the treatment of diabetes, obesity, dyslipidemia and related disorders” (SANOFI, priority 2014, dated 2016).

What follows are molecules tested against T1, human Keap1 kelch domain (amino acids Ala321-Thr609) (Homo sapiens, UniProt Q14145) (assay: Keap1-Nrf2 peptide binding assay (fluorescence polarisation)). Settings: binding of Keap1 kelch domain (20 nM) to fluorescently labeled Nrf2 peptide (50 nM).
T1 construct: human Keap1 kelch domain (amino acids Ala321-Thr609)
T1 sequence (Q14145 321-609): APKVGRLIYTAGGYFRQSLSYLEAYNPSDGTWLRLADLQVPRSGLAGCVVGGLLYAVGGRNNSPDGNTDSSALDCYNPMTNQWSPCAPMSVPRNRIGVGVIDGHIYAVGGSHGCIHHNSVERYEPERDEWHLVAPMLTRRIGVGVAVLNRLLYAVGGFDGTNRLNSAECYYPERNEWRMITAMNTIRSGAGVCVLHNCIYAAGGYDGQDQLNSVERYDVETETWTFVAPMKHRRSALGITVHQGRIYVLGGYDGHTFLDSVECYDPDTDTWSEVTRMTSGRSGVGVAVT
Experimental: A fluorescence polarisation assay was used to measure binding of the human Keap1 kelch domain (amino acids Ala321-Thr609) to a fluorescently labeled peptide containing a Keap1 binding site of human Nrf2 (Alexa633-AFFAQLQLDEETGEFL; JPT Technologies, Berlin, Germany). Two microliters of test compound in reaction buffer (phosphate-buffered saline, 2 mM DL-dithiothreitol, 0.015 % (v/v) Brij-35) containing 6 % (v/v) DMSO were mixed with two microliters of the Keap1 kelch domain in reaction buffer in a black 384-well small volume microtiter plate and incubated at ambient temperature for 15 minutes. Thereafter, two microliters were added of the fluorescently labeled Nrf2 peptide in reaction buffer, and the mixture was incubated for a further 30 minutes at ambient temperature. Final concentrations of the Keap1 kelch domain and the fluorescently labeled Nrf2 peptide were 20 nM and 50 nM, respectively.
Fluorescence polarization (FP) was measured at excitation and emission wavelengths of 635 nm and 660 nm, respectively. Positive controls for binding (two microliters of reaction buffer containing 6 % (v/v) DMSO instead of test compound in the same buffer) and negative controls (as positive controls, but without Keap1 kelch domain) were included on each microtiter plate. Data were expressed as percent-inhibition values: percentinhibition = 100⋅(1-(|FPcompound-FPnegative controle|)/(|FPpositive controle-FPnegative controle|)) [formula]
IC50 values were determined by testing different compound concentrations and fitting the resulting percent-inhibition values to the following equation using XLFit4: percentinhibition = A + (B-A)/(1 + (((IC50)/([Compound])))^D) [formula]
Parameter A was set to zero, pre-fit values for parameters B and D were set to 100 and 1, respectively.

SMILES	IC50 [nM]
Cc1ccc(C#N)c(S(=O)(=O)Nc2ccc(-c3cccc(C(=O)O)c3)c3ccccc23)c1 [Example 53, 3-[4-[(2-cyano-5-methylphenyl)sulfonylamino]-1-naphthyl]benzoic acid]	6700
Cc1cc(NC(=O)c2ccccc2)ccc1S(=O)(=O)Nc1ccc(-c2cccc(C(=O)O)c2)c2ccccc12 [Example 47, 3-[4-[(4-benzamido-2-methylphenyl)sulfonylamino]-1-naphthyl]benzoic acid]	5000
Cc1ccc(Cl)cc1S(=O)(=O)Nc1ccc(-c2cc(C(=O)O)ccc2F)c2ccccc12 [Example 87, 3-[4-[(5-chloro-2-methylphenyl)sulfonylamino]-1-naphthyl]-4-fluorobenzoic acid]	1000
O=C(O)c1cccc(-c2ccc(NS(=O)(=O)c3cc(Cl)c(F)cc3F)c3ccccc23)c1 [Example 40, 3-[4-[(5-chloro-2,4-difluorophenyl)sulfonylamino]-1-naphthyl]benzoic acid]	4400
Cc1cccc(Cl)c1S(=O)(=O)Nc1ccc(-c2cccc(C(=O)O)c2)c2ccccc12 [Example 21, 3-[4-[(2-chloro-6-methylphenyl)sulfonylamino]-1-naphthyl]benzoic acid]	1800
O=C(O)c1cccc(-c2ccc(NS(=O)(=O)c3ccc(Cl)c(C(F)(F)F)c3)c3ccccc23)c1 [Example 37, [4-[[4-chloro-3-(trifluoromethyl)phenyl]sulfonylamino]-1-naphthyl]benzoic acid]	4000
Cc1ccc(Cl)cc1S(=O)(=O)Nc1ccc(-c2cccc(C(=O)O)c2)c2ccccc12 [Example 41, 3-[4-[(5-chloro-2-methylphenyl)sulfonylamino]-1-naphthyl]benzoic acid]	1400
O=C(O)c1cccc(-c2ccc(NS(=O)(=O)c3cccc(Cl)c3Cl)c3ccccc23)c1 [Example 34, 3-[4-[(2,3-dichlorophenyl)sulfonylamino]-1-naphthyl]benzoic acid]	1500

Same assay, conditions: binding of Keap1 kelch domain (20 nM) to fluorescently labeled Nrf2 peptide (50 nM); read-out: IC50

IC50 [nM]	SMILES
1200	Cc1c(S(=O)(=O)Nc2ccc(-c3cc(C(=O)O)ccc3F)c3ccccc23)cnn1C1CCCC1 [Example 90, 3-[4-[(1-cyclopentyl-5-methyl-pyrazol-4-yl)sulfonylamino]-1-naphthyl]-4-fluorobenzoic acid]
700	CCCCn1cc(S(=O)(=O)Nc2ccc(-c3cccc(C(=O)O)c3)c3ccccc23)c(C)n1 [Example 62, 3-[4-[(1-butyl-3-methyl-pyrazol-4-yl)sulfonylamino]-1-naphthyl]benzoic acid]
2200	CCCCCCCCn1nc(C)c(S(=O)(=O)Nc2ccc(-c3cc(C(=O)O)ccc3F)c3ncccc23)c1C [Example 95, 3-[5-[(3,5-dimethyl-1-octyl-pyrazol-4-yl)sulfonylamino]-8-quinolyl]-4-fluorobenzoic acid]
1700	Cc1cc(C)c(C)c(S(=O)(=O)Nc2ccc(-c3ccc(F)c(C(=O)O)c3)c3ccccc23)c1C [Example 6, 2-fluoro-5-[4-[(2,3,5,6-tetramethylphenyl)sulfonylamino]-1-naphthyl]benzoic acid]
2500	O=C(O)c1cccc(-c2ccc(NS(=O)(=O)c3ccc(N4CCCC4=O)cc3)c3ccccc23)c1 [Example 26, 3-[4-[[4-(2-oxopyrrolidin-1-yl)phenyl]sulfonylamino]-1-naphthyl]benzoic acid]
6500	Cc1c(S(=O)(=O)Nc2ccc(-c3cc(C(=O)O)ccc3F)c3ncccc23)sc2ccc(Cl)cc12 [Example 93, 3-[5-[(5-chloro-3-methyl-benzothiophen-2-yl)sulfonylamino]-8-quinolyl]-4-fluoro-benzoic acid]
400	Cc1nn(C)c(Cl)c1S(=O)(=O)Nc1ccc(-c2cccc(C(=O)O)c2)c2ccccc12 [Example 12, 3-[4-[(5-chloro-1,3-dimethyl-pyrazol-4-yl)sulfonylamino]-1-naphthyl]benzoic acid]
1600	Cc1c(S(=O)(=O)Nc2ccc(-c3cccc(C(=O)O)c3)c3ccccc23)sc2ccc(Cl)cc12 [Example 17, 3-[4-[(5-chloro-3-methyl-benzothiophen-2-yl)sulfonylamino]-1-naphthyl]benzoic acid]
2100	Cc1ccc(S(=O)(=O)Nc2ccc(-c3cccc(C(=O)O)c3)c3ccccc23)cc1 [Example 3, 3-[4-(p-tolylsulfonylamino)-1-naphthyl]benzoic acid]
3000	Cc1c(S(=O)(=O)Nc2ccc(-c3cc(C(=O)O)ccc3F)c3ncccc23)sc2cccc(F)c12 [Example 94, 4-fluoro-3-[5-[(4-fluoro-3-methyl-benzothiophen-2-yl)sulfonylamino]-8-quinolyl]benzoic acid]
3700	Cc1c(S(=O)(=O)Nc2ccc(-c3cc(C(=O)O)ccc3F)c3ccccc23)cnn1-c1ccccc1 [Example 77, 4-fluoro-3-[4-[(5-methyl-1-phenyl-pyrazol-4-yl)sulfonylamino]-1-naphthyl]benzoic acid]
7700	Cc1ccc(S(=O)(=O)Nc2ccc(-c3cccc(C(=O)O)c3)c3ccccc23)c(Cl)n1 [Example 73, 3-[4-[(2-chloro-6-methyl-3-pyridyl)sulfonylamino]-1-naphthyl]benzoic acid]
1900	Cc1nc(C)c(S(=O)(=O)Nc2ccc(-c3cc(C(=O)O)ccc3F)c3ccccc23)s1 [Example 80, 3-[4-[(2,4-dimethylthiazol-5-yl)sulfonylamino]-1-naphthyl]-4-fluorobenzoic acid]
1300	Cc1cc(S(=O)(=O)Nc2ccc(-c3cc(C(=O)O)ccc3F)c3ccccc23)c(Cl)cc1Cl [Example 88, 3-[4-[(2,4-dichloro-5-methylphenyl)sulfonylamino]-1-naphthyl]-4-fluorobenzoic acid]
2800	CC(=O)Nc1nc(C)c(S(=O)(=O)Nc2ccc(-c3cccc(C(=O)O)c3)c3ccccc23)s1 [Example 11, 3-[4-[(2-acetamido-4-methyl-thiazol-5-yl)sulfonylamino]-1-naphthyl]benzoic acid]
5800	Cc1nc(-c2ccc(C(F)(F)F)cc2)sc1S(=O)(=O)Nc1ccc(-c2cc(C(=O)O)ccc2F)c2ccccc12 [Example 9, 4-fluoro-3-[4-[[4-methyl-2-[4-(trifluoromethyl)phenyl]thiazol-5-yl]sulfonylamino]-1-naphthyl]benzoic acid]
800	Cc1nn(C)c(C)c1S(=O)(=O)Nc1ccc(-c2cccc(C(=O)O)c2)c2ccccc12 [Example 22, 3-[4-[(1,3,5-trimethylpyrazol-4-yl)sulfonylamino]-1-naphthyl]benzoic acid]
5200	Cc1nc(-c2ccc(C(F)(F)F)cc2)sc1S(=O)(=O)Nc1ccc(-c2cccc(C(=O)O)c2F)c2ccccc12 [Example 8, 2-fluoro-3-[4-[[4-methyl-2-[4-(trifluoromethyl)phenyl]thiazol-5-yl]sulfonylamino]-1-naphthyl]benzoic acid]
2400	Cc1c(S(=O)(=O)Nc2ccc(-c3cccc(C(=O)O)c3)c3ccccc23)cnn1CC(C)C [Example 68, 3-[4-[(1-isobutyl-5-methyl-pyrazol-4-yl)sulfonylamino]-1-naphthyl]benzoic acid]
2800	Cc1nc(-c2ccccc2)sc1S(=O)(=O)Nc1ccc(-c2cccc(C(=O)O)c2)c2ccccc12 [Example 39, 3-[4-[(4-methyl-2-phenyl-thiazol-5-yl)sulfonylamino]-1-naphthyl]benzoic acid]
1700	Cc1c(S(=O)(=O)Nc2ccc(-c3cc(C(=O)O)ccc3F)c3ccccc23)cnn1CC(C)C [Example 84, 4-fluoro-3-[4-[(1-isobutyl-5-methyl-pyrazol-4-yl)sulfonylamino]-1-naphthyl]benzoic acid]
400	Cc1nn(C)c(C)c1S(=O)(=O)Nc1ccc(-c2cc(C(=O)O)ccc2F)c2ccccc12 [Example 79, 4-fluoro-3-[4-[(1,3,5-trimethylpyrazol-4-yl)sulfonylamino]-1-naphthyl]benzoic acid]
4400	O=C(O)c1ccc(F)c(-c2ccc(NS(=O)(=O)c3ccc(Cl)c(C(F)(F)F)c3)c3ccccc23)c1 [Example 75, 3-[4-[[4-chloro-3-(trifluoromethyl)phenyl]sulfonylamino]-1-naphthyl]-4-fluoro-benzoic acid]
2200	COc1ccc(F)c(S(=O)(=O)Nc2ccc(-c3cc(C(=O)O)ccc3F)c3ccccc23)c1 [Example 91, 4-fluoro-3-[4-[(2-fluoro-5-methoxyphenyl)sulfonylamino]-1-naphthyl]benzoic acid]
4200	O=C(O)c1cccc(-c2ccc(NS(=O)(=O)c3ccc(N4CCOCC4)nc3)c3ccccc23)c1 [Example 36, 3-[4-[(6-morpholino-3-pyridyl)sulfonylamino]-1-naphthyl]benzoic acid]
2200	COc1ccc(S(=O)(=O)Nc2ccc(-c3cc(C(=O)O)ccc3F)c3ccccc23)c(OC)c1 [Example 83, 3-[4-[(2,4-dimethoxyphenyl)sulfonylamino]-1-naphthyl]-4-fluoro-benzoic acid]
